In article PMC10140010 (Investigational New Drugs, 2023):
“And” between values parts separate entries of the source, which are not always exact repeats. Identical values can stand only once. “Also recorded” adds a separate entry of the source.

Key:
[1] = tested on: phosphorylation of ROS1, AKT, ERK in NIH-3T3 (CD74-ROS1) cells; assay: Western blot of ROS1 and downstream signaling phosphorylation; assay type: cell-based; settings: 2 h incubation
Procedure: (§1) In general, the cells were exposed to the drug and were harvested for western blot analysis. SDS-PAGE was used to separate the proteins of interest, which were then transferred to a nitrocellulose (NC) filtration membrane and soaked in a blocking solution [5% non-fat dry milk in tris-buffered saline with Tween 20 (TBST)] for 1 h at room temperature. Thereafter, the membrane was probed overnight with primary antibodies at 4℃ and washed three times with TBST. The corresponding secondary antibody diluent was added, incubated at room temperature for 1 h, and washed 3 times with TBST. After adding the enhanced chemiluminescence developer to the NC filtration membrane, it is developed in the imaging system (ChemiDoc™ XRS^+, BIO-RAD). See Supplementary Table 2 for details of the antibodies used.
(§2) It is reported that ROS1-mediated cell signaling pathways include RAS-RAF-MEK-ERK, PI3K-AKT-mTOR and JAK-STAT3 pathways. According to reports and the differences in the expression of signaling pathway proteins in different cells, the key signaling proteins in different signaling pathways were selected for research.

[2] = tested on: phosphorylation of ROS1, ERK, SHP-1 in Ba/F3 (SLC34A2-ROS1) cells; assay: as above; assay type: cell-based; settings: 2 h incubation
Procedure: as §1, §2

[3] = Plasma protein binding rate (dialysis); assay type: in vitro ADME
Procedure: (§3) At three test concentrations (0.2, 2 and 10 µM), the plasma protein binding rate of iruplinalkib is as follows (Fig. 3a). […] With the increase of concentration, the protein binding rates of iruplinalkib in rat plasma decreased gradually, showing a certain concentration dependence, and there was no concentration dependence of protein binding rate observed in other species plasma.

OAT1 = assay: Uptake substrate investigation in HEK293 cells expressing transporter
Description: (§4) The engineered NIH-3T3 (CD74-ROS1 fusion gene) cells was obtained from Nanjing GenScript Biotechnology Co., Ltd. The engineered Ba/F3 (SLC34A2-ROS1 fusion gene) cell line was obtained from Kyinno Biotechnology (Beijing) Co., Ltd. The HCC-78 (SLC34A2-ROS1 fusion gene) cell line was purchased from Shanghai Hongshun Biotechnology Co., Ltd. The engineered NIH-3T3 (CD74-ROS1 fusion gene) cells was obtained from Nanjing GenScript Biotechnology Co., Ltd. The engineered HEK293 cell lines with OATP1B1 (Lot. No ESH6G27), OATP1B3 (Lot. No ESH7G27), OCT2 (Lot. No ESH9G27), OAT1 (Lot. No ESHCG27), OAT3 (Lot. […] No ESHDG27) were purchased from GenoMembrane and validated using the specific substrate for each transporter. All cells were cultured at 37℃ in a 5% CO2 atmosphere. Cell culture reagents were obtained from Life Technologies, Inc. See Supplemental Table 1 for details on the source of the cell lines and the media used.

ALK^C1156Y = ALK^C1156Y (Homo sapiens, UniProt Q9UM73, C1156Y); assay: HTRF kinase activity assay; assay type: biochemical
Procedure: After the kinase proteins, Ulight-peptide species, adenosine triphosphate (ATP), and compound were mixed, the reaction was carried out at room temperature. Reactions were quenched by the addition of ethylene diamine tetraacetic acid buffer containing Eu antibody and XL665-streptavidin at the indicated time points. Plate reading was performed using an Envision (Perkin Elmer, MA, USA) multifunctional microplate reader.

MRP2 = target: T1, MRP2 (Homo sapiens, UniProt Q92887); assay: MRP2 inhibitor investigation; assay type: in vitro ADME
T1 construct: host or cells: membrane vesicles ('Membrane capsule'), MRP2 versus NC control, with ATP or AMP

OATP1B1 [4] = target: T2, OATP1B1 (Homo sapiens, UniProt Q9Y6L6); assay: Uptake inhibitor investigation in HEK293 cells expressing transporter; assay type: in vitro ADME
T2 construct: No ESH6G27; host or cells: HEK293
T2 sequence (Q9Y6L6 1-691): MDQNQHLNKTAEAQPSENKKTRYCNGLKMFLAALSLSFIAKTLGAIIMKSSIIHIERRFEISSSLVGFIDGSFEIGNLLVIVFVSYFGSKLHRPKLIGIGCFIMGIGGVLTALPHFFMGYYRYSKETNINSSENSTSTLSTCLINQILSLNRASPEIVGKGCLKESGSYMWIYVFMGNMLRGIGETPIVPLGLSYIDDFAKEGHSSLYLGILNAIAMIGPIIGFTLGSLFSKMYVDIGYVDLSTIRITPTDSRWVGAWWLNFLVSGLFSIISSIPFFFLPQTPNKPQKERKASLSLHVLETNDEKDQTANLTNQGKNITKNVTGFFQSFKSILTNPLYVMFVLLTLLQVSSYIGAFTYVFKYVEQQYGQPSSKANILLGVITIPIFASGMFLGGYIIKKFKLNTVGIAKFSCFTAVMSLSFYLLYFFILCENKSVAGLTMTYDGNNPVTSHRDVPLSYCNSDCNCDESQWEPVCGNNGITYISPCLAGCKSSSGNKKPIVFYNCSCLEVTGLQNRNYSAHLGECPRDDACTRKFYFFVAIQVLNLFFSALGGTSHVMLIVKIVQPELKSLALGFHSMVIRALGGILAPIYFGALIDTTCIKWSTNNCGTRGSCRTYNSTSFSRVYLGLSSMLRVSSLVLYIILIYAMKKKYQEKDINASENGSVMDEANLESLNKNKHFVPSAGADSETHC
Procedure: Using a stably transfected cell line of HEK293 expressing transporter OATP1B1, OATP1B3 or OCT2, formal substrate investigation tests were performed for three concentration gradients (30 µM, 3 µM, 0.3 µM) of iruplinalkib.

OATP1B1 [5] = target: T2, OATP1B1; assay: Uptake substrate investigation in HEK293 cells expressing transporter; assay type: in vitro ADME; settings: for Ratio of uptake transit activity / Uptake transport activity, Net value: OATP1B1-293 vs MOCK293
Description: as §4

OATP1B3 = assay: Uptake inhibitor investigation in HEK293 cells expressing transporter; assay type: in vitro ADME
[6] = tested on: phosphorylation of ALK, AKT, ERK, STAT3 in NCI-H3122 cells; assay: Western blot of ALK and downstream signaling phosphorylation; assay type: cell-based, human; settings: 2 h incubation
Procedure: as §1

BSEP = target: T3, BSEP (Homo sapiens, UniProt O95342); assay: BSEP inhibitor investigation; assay type: in vitro ADME
T3 construct: host or cells: membrane vesicles ('Membrane capsule'), BSEP versus NC control, with ATP or AMP

[7] = Recovery in dialysis device and stability in plasma during dialysis; assay type: in vitro ADME; settings: 0.2, 2 and 10 µM, all species
Procedure: as §3

[8] = MOCK293, test substrate 10 μM, no inhibitor, OAT1 pre-test
[9] = OATP1B1-293 (so in the source), test substrate 10 μM, no inhibitor, OAT1 pre-test
[10] = transporter cells vs MOCK293, test substrate 10 μM, no inhibitor, OAT1 pre-test
[11] = human, HEK293 cells expressing OATP1B1, probe ATV (atorvastatin), 1 μM, read-out: Inhibition rate
[12] = MOCK293, test substrate 10 μM, no inhibitor, pre-test
[13] = OATP1B1-293, test substrate 10 μM, no inhibitor, pre-test
[14] = test substrate 10 μM, no inhibitor, pre-test
[15] = human, HEK293 cells expressing OATP1B3, probe ATV (atorvastatin), 1 μM, read-out: Inhibition rate

T3 sequence (O95342 whole entry): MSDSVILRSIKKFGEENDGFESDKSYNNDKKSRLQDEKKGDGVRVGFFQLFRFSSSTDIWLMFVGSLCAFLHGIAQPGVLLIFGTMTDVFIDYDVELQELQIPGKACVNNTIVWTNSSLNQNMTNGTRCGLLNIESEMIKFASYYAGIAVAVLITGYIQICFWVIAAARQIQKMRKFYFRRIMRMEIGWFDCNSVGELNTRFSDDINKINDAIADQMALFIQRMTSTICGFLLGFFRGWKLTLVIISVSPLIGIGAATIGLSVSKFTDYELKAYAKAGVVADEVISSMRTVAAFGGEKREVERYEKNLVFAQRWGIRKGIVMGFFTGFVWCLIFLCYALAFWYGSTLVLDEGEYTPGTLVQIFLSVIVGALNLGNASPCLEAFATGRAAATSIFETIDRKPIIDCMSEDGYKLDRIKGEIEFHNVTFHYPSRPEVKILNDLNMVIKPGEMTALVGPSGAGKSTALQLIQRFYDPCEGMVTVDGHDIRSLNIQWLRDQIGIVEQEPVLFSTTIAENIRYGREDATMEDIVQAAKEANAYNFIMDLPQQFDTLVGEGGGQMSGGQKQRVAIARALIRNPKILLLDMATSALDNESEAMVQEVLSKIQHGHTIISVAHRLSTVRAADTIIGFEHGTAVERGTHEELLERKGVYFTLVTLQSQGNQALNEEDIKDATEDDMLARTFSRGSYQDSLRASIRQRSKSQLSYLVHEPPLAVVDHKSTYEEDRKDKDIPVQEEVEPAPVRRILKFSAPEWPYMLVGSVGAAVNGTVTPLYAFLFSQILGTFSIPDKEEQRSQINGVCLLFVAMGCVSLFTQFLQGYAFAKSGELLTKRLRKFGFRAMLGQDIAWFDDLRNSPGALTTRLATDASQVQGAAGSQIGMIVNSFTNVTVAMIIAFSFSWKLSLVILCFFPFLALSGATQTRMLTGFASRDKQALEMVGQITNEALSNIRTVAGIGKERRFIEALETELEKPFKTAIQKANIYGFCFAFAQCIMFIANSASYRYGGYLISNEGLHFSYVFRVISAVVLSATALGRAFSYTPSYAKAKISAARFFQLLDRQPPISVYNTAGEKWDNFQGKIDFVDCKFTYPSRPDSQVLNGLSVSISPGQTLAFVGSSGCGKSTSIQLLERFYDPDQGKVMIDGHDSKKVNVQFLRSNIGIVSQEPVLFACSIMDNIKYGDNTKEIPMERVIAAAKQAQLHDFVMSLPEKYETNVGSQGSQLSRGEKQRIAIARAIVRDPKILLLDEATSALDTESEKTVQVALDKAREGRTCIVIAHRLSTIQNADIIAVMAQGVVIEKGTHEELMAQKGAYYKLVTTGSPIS
T1 sequence (Q92887 whole entry): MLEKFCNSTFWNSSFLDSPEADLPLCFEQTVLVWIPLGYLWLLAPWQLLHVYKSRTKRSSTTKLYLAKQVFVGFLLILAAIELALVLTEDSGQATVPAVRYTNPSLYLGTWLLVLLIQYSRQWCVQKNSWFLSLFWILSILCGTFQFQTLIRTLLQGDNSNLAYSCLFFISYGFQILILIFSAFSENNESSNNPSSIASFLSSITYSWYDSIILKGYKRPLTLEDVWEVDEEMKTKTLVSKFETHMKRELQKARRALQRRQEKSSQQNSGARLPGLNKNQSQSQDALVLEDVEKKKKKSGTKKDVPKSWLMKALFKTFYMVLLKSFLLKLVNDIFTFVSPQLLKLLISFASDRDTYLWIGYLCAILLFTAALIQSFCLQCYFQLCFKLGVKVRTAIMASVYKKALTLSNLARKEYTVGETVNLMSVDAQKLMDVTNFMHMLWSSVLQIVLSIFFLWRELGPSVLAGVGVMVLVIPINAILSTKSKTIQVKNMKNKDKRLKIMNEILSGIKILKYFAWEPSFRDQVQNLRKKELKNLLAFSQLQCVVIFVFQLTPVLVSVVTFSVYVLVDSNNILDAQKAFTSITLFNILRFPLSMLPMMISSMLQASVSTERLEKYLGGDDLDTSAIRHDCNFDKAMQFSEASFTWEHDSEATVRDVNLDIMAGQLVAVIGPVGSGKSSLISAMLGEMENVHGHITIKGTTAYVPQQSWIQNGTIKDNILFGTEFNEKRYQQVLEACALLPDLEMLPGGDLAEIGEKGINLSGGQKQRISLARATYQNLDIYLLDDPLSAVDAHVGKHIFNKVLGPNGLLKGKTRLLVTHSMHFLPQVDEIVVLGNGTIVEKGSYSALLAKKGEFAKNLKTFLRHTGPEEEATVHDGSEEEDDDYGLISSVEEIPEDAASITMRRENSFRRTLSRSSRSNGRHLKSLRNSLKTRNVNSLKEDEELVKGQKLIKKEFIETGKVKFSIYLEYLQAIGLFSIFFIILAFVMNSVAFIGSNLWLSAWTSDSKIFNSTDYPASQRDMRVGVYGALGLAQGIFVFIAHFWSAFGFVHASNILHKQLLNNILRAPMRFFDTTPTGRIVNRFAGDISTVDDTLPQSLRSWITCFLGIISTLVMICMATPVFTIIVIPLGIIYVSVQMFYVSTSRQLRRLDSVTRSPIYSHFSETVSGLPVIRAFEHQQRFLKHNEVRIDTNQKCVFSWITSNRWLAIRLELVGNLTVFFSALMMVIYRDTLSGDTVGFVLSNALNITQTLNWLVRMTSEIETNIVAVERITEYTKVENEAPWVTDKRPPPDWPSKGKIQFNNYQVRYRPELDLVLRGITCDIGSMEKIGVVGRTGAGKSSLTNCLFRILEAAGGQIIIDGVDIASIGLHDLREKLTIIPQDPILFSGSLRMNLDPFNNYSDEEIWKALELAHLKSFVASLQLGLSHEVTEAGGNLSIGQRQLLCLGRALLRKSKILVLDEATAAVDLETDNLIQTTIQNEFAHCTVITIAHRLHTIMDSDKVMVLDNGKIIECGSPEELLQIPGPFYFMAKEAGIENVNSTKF
Sequence of ALK^C1156Y (Q9UM73 19-1620 C1156Y): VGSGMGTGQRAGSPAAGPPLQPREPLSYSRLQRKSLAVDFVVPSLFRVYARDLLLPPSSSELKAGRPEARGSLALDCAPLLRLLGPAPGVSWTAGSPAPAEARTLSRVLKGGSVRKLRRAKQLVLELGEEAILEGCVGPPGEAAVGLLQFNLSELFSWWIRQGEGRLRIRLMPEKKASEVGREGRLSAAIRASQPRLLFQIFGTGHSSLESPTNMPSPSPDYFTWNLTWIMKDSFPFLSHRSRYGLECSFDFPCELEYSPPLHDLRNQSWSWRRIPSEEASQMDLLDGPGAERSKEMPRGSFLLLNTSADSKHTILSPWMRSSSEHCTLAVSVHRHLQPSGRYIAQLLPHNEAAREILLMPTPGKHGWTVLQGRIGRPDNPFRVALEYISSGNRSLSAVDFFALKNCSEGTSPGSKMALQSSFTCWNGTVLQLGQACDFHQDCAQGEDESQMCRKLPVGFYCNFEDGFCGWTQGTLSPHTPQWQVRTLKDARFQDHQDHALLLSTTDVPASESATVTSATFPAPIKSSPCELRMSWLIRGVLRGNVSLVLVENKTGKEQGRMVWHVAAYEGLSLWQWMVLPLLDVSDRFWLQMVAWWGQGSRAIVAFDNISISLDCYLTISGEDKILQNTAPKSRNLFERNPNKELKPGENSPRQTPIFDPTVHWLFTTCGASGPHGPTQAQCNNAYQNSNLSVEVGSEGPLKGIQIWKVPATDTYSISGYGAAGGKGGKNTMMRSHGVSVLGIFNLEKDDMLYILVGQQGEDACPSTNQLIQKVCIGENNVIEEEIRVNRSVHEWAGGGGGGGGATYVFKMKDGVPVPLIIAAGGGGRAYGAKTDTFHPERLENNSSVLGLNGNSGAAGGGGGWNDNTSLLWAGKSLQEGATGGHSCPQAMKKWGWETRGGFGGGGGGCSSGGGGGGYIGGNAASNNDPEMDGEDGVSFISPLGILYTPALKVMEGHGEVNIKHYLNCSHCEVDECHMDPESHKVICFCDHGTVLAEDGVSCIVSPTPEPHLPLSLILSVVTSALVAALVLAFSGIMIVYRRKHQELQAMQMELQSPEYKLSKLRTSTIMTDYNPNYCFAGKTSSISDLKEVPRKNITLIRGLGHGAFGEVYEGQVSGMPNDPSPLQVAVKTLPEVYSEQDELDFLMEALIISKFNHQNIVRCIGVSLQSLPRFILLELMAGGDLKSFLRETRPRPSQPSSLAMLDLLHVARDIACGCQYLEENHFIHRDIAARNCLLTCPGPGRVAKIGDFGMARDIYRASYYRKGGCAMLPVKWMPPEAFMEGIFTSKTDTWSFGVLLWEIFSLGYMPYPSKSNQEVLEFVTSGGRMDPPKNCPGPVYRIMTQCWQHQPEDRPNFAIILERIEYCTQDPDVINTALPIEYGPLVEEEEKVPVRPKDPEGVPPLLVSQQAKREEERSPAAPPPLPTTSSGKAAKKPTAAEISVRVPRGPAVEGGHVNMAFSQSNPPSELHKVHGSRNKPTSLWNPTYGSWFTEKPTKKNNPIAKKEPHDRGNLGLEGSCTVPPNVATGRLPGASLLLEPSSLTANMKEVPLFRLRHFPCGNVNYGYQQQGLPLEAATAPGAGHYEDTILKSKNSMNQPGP

## COc1cc(N2CCC3(CCN(C)CC3)CC2)ccc1Nc1ncc(Cl)c(Nc2ccccc2P(C)(C)=O)n1 [Iruplinalkib]
[1]
  phosphorylation levels of ROS1, AKT, ERK: inhibited
[2]
  phosphorylation levels of ROS1, ERK, SHP-1: inhibited
[3]; 0.2 µM, SD rats plasma
  plasma protein binding rate: high protein binding rate
[3]; 0.2, 2 and 10 µM, Beagle dogs plasma
  plasma protein binding rate: medium protein binding rate
[3]; 0.2, 2 and 10 µM, CD-1 mice plasma
  plasma protein binding rate: medium protein binding rate
[3]; 0.2, 2 and 10 µM, Macaca fascicularis plasma
  plasma protein binding rate: medium protein binding rate
[3]; 0.2, 2 and 10 µM, SD rats plasma
  plasma protein binding rate: medium protein binding rate
[3]; 0.2, 2 and 10 µM, human plasma
  plasma protein binding rate: medium protein binding rate; also recorded: moderate
OAT1; HEK293
  uptake substrate of OAT1: not an uptake substrate
OAT1; [8]
  Uptake transport activity, Mean: 313.6 pmol/mg protein/min
  Uptake transport activity, Repeat 1 / Repeat 2: 302.7 pmol/mg protein/min and 324.5 pmol/mg protein/min
OAT1; [9]
  Uptake transport activity, Mean: 289.1 pmol/mg protein/min
  Uptake transport activity, Repeat 1 / Repeat 2: 285.7 pmol/mg protein/min and 292.5 pmol/mg protein/min
OAT1; [10]
  Ratio of uptake transit activity: 0.92
  Uptake transport activity, Net value: -24.51 pmol/mg protein/min
ALK^C1156Y
  IC50: 9.28 nM and < 10 nM
MRP2
  efflux inhibitor of MRP2: not an efflux inhibitor
MRP2; probe CDCF 5 μM, MRP2, substrate CDCF 5 μM, inhibitor 0.1 μM, read-out: Inhibition rate
  inhibition at 0.1 μM: -7.3%
MRP2; probe CDCF 5 μM, MRP2, substrate CDCF 5 μM, inhibitor 0.3 μM, read-out: Inhibition rate
  inhibition at 0.3 μM: -8.8%
MRP2; probe CDCF 5 μM, MRP2, substrate CDCF 5 μM, inhibitor 1 μM, read-out: Inhibition rate
  inhibition at 1 μM: -4.5%
MRP2; probe CDCF 5 μM, MRP2, substrate CDCF 5 μM, inhibitor 3 μM, read-out: Inhibition rate
  inhibition at 3 μM: -4.2%
MRP2; probe CDCF, MRP2, substrate CDCF 5 μM, inhibitor 10 μM, read-out: Inhibition rate
  inhibition at 10 µM: -3.8%
MRP2; probe CDCF, MRP2, substrate CDCF 5 μM, inhibitor 30 μM, read-out: Inhibition rate
  inhibition at 30 μM: -2.8%
MRP2; probe CDCF, MRP2, substrate CDCF 5 μM, inhibitor 100 μM, read-out: Inhibition rate
  inhibition at 100 μM: -7.3%
OATP1B1 [4]; HEK293
  inhibition of OATP1B1 uptake activity: can inhibit the uptake activity
OATP1B1 [4]; [11]
  inhibition at 0.5 μM: 26.5%
  inhibition at 5 μM: 28.9%
  inhibition at 50 μM: 67.8%
OATP1B1 [5]; 30 µM, 3 µM, 0.3 µM, HEK293
  uptake transport activity ratio, OATP1B1: less than two
OATP1B1 [5]; HEK293
  uptake substrate of OATP1B1: not an uptake substrate
OATP1B1 [5]; MOCK293 (OATP1B1 set), 0.3 μM, Suppl. Table 11
  Uptake transport activity, Mean: 7.468 pmol/mg protein/min
OATP1B1 [5]; MOCK293 (OATP1B1 set), 3 μM, Suppl. Table 11
  Uptake transport activity, Mean: 54.18 pmol/mg protein/min
OATP1B1 [5]; MOCK293 (OATP1B1 set), 30 μM, Suppl. Table 11
  Uptake transport activity, Mean: 601.2 pmol/mg protein/min
OATP1B1 [5]; [12]
  Uptake transport activity, Mean: 102.0 pmol/mg protein/min
  Uptake transport activity, Repeat 1 / Repeat 2: 100.4 pmol/mg protein/min and 103.6 pmol/mg protein/min
OATP1B1 [5]; OATP1B1-293, 0.3 μM, Suppl. Table 11
  Uptake transport activity, Mean: 8.227 pmol/mg protein/min
OATP1B1 [5]; OATP1B1-293, 3 μM, Suppl. Table 11
  Uptake transport activity, Mean: 46.74 pmol/mg protein/min
OATP1B1 [5]; OATP1B1-293, 30 μM, Suppl. Table 11
  Uptake transport activity, Mean: 564.7 pmol/mg protein/min
OATP1B1 [5]; [13]
  Uptake transport activity, Mean: 55.08 pmol/mg protein/min
  Uptake transport activity, Repeat 1 / Repeat 2: 50.74 pmol/mg protein/min and 59.41 pmol/mg protein/min
OATP1B1 [5]; 0.3 μM, Suppl. Table 11
  Ratio of uptake transit activity: 1.10
  Uptake transport activity, Net value: 0.759 pmol/mg protein/min
OATP1B1 [5]; 3 μM, Suppl. Table 11
  Ratio of uptake transit activity: 0.86
  Uptake transport activity, Net value: -7.440 pmol/mg protein/min
OATP1B1 [5]; 30 μM, Suppl. Table 11
  Ratio of uptake transit activity: 0.94
  Uptake transport activity, Net value: -36.47 pmol/mg protein/min
OATP1B1 [5]; [14]
  Ratio of uptake transit activity: 0.54
  Uptake transport activity, Net value: -46.9 pmol/mg protein/min
OATP1B3; HEK293
  inhibition of OATP1B3 uptake activity: can inhibit the uptake activity
OATP1B3; [15]
  inhibition at 0.5 μM: 7.2%
  inhibition at 5 μM: 15.3%
  inhibition at 50 μM: 41.1%
[6]
  phosphorylation level of STAT3: not STAT3
  phosphorylation levels of ALK, AKT, ERK: reduced
BSEP
  efflux inhibitor of BSEP: not an efflux inhibitor
BSEP; BSEP membrane capsules (membrane vesicles), ATP vs AMP, probe TCA, BSEP, substrate TCA 10 μM, inhibitor 0.1 μM, read-out: Inhibition rate
  inhibition at 0.1 μM: -25.4%
BSEP; BSEP membrane capsules (membrane vesicles), ATP vs AMP, probe TCA, BSEP, substrate TCA 10 μM, inhibitor 0.3 μM, read-out: Inhibition rate
  inhibition at 0.3 μM: -10.7%
BSEP; BSEP membrane capsules (membrane vesicles), ATP vs AMP, probe TCA, BSEP, substrate TCA 10 μM, inhibitor 1 μM, read-out: Inhibition rate
  inhibition at 1 μM: -26.7%
BSEP; BSEP membrane capsules (membrane vesicles), ATP vs AMP, probe TCA, BSEP, substrate TCA 10 μM, inhibitor 3 μM, read-out: Inhibition rate
  inhibition at 3 μM: -11.8%
BSEP; BSEP membrane capsules (membrane vesicles), ATP vs AMP, probe TCA, BSEP, substrate TCA 10 μM, inhibitor 10 μM, read-out: Inhibition rate
  inhibition at 10 µM: -10.5%
BSEP; BSEP membrane capsules (membrane vesicles), ATP vs AMP, probe TCA, BSEP, substrate TCA 10 μM, inhibitor 30 μM, read-out: Inhibition rate
  inhibition at 30 μM: -0.09%
BSEP; BSEP membrane capsules (membrane vesicles), ATP vs AMP, probe TCA, BSEP, substrate TCA 10 μM, inhibitor 100 μM, read-out: Inhibition rate
  inhibition at 100 μM: 26.3%
[7]
  remaining rates in plasma after incubation for 5 h: 95–109.3%
[7]; CD-1 (mouse), SD (rat), Beagle (dog), plasma, read-out: recovery rates in the dialysis device
  recovery: 81.8 to 99.9%
